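Briefly, cells in 96-well plates were exposed to five compound concentrations for 48 h, and endpoints were estimated by linear interpolation. The concentration for full growth arrest is given as TGI.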
Experiments:
Assay in all cases: NCI anticancer screen, dose series, 48 h
[1] = tested on: 786-0 renal
[2] = tested on: A498 renal
[3] = tested on: A549 NSCLC
[4] = tested on: BT-549 breast
[5] = tested on: CAKI-1 renal
[6] = tested on: CCRF-CEM leukemia
[7] = tested on: COLO 205 colon
[8] = tested on: DU-145 prostate
[9] = tested on: EKVX NSCLC
[10] = tested on: HCC-2998 colon
[11] = tested on: HCT-116 colon
[12] = tested on: HCT-15 colon
[13] = tested on: HL-60(TB) leukemia
[14] = tested on: HS 578T breast
[15] = tested on: HT29 colon
[16] = tested on: IGROV1 ovarian
[17] = tested on: K-562 leukemia
[18] = tested on: KM12 colon
[19] = tested on: LOX IMVI melanoma
[20] = tested on: M14 melanoma
[21] = tested on: MALME-3M melanoma
[22] = tested on: MCF7 breast
[23] = tested on: MDA-MB-231 breast
[24] = tested on: MDA-MB-435
[25] = tested on: MDA-N
[26] = tested on: MOLT-4 leukemia
[27] = tested on: NCI-H226 lung
[28] = tested on: NCI-H23 lung
[29] = tested on: NCI-H460 lung
[30] = tested on: NCI-H522 lung
[31] = tested on: NCI/ADR-RES ovarian
[32] = tested on: OVCAR-3 ovarian
[33] = tested on: OVCAR-4 ovarian
[34] = tested on: OVCAR-5 ovarian
[35] = tested on: OVCAR-8 ovarian
[36] = tested on: PC-3 prostate
[37] = tested on: RPMI-8226 leukemia
[38] = tested on: RXF 393 renal
[39] = tested on: SF-268 CNS
[40] = tested on: SF-539 CNS
[41] = tested on: SK-MEL-2 melanoma
[42] = tested on: SK-MEL-28 melanoma
[43] = tested on: SK-MEL-5 melanoma
[44] = tested on: SK-OV-3 ovarian
[45] = tested on: SN12C renal
[46] = tested on: SNB-19 CNS
[47] = tested on: SNB-75 CNS
[48] = tested on: SR leukemia
[49] = tested on: SW-620 colon
[50] = tested on: T-47D breast
[51] = tested on: TK-10 renal
[52] = tested on: U251 CNS
[53] = tested on: UACC-257 melanoma
[54] = tested on: UACC-62 melanoma
[55] = tested on: UO-31 renal
[56] = tested on: ACHN renal
[57] = tested on: HOP-62 NSCLC
[58] = tested on: HOP-92 NSCLC
[59] = tested on: SF-295 CNS

Measured: TGI

COC(=O)NNC(c1ccc(Cl)cc1)c1ccc(Cl)cc1
35.7 µM: [5]
34.9 µM: [2]
> 100 µM: [8] | [24]
30.5 µM: [36]
58.6 µM: [44]
70 µM: [49]
32.4 µM: [4]
53 µM: [17]
43.8 µM: [21]
45.6 µM: [25]
55.3 µM: [33]
31.9 µM: [20] | [32]
32.8 µM: [3]
34 µM: [16]
26.6 µM: [41]
39.8 µM: [31]
35.2 µM: [29] | [45]
34.2 µM: [15]
32 µM: [19]
54.1 µM: [6]
55.9 µM: [26]
40 µM: [9]
37 µM: [18]
31.2 µM: [43]
31.1 µM: [12]
39 µM: [40] | [53]
68.2 µM: [50]
34.6 µM: [28]
54.8 µM: [48]
52 µM: [37]
25.8 µM: [23]
42.4 µM: [35]
48.1 µM: [14]
69 µM: [47]
38 µM: [7]
33.6 µM: [51]
27.6 µM: [10]
49 µM: [39]
64.4 µM: [13]
40.3 µM: [34] | [52]
41.1 µM: [46]
43 µM: [42]
75.6 µM: [22]
35 µM: [1]
30.3 µM: [11]
30.9 µM: [54]
25.2 µM: [55]
38.7 µM: [30]
23.7 µM: [38]
35.3 µM: [27]

CCN(CC)CCCNC(=O)c1cc2cc(NC(=O)c3cc4cc([N+](=O)[O-])ccc4[nH]3)ccc2[nH]1
76.9 µM: [53]
75.8 µM: [32]
96.3 µM: [54]
93.4 µM: [57]
75.7 µM: [2]
not listed: [6] | [13] | [14] | [19] | [21] | [26] | [30] | [52]
> 100 µM: all other assays above

C[N+](C)(C)C=Nc1cccc2c1CCCC2
not listed: [10] | [18] | [29] | [30] | [49]
> 100 µM: all other assays above

Cc1ccc(-c2cc(O)c3nc4ccccc4n3c2)cc1
not listed: [10] | [34] | [41] | [43] | [56]
> 100 µM: all other assays above

From PubChem BioAssay (NCI)
